How the values were obtained:
[1] = system: bacteria in plaque (species of Table 1); experiment: Antibacterial test of 1,2,3-butanetriol: gDNA extraction and PCR per bacterial species; format: cell-based, oral bacteria; settings: PCR of gDNA after butanetriol treatment, FIG. 3
From the text: From the above cultured strain, gDNA was extracted, and the bacteria were identified through PCR. [table] Separately from the absorption rate measurement, gDNA was extracted from the well microplate after treatment with butanetriol, and the results identified by PCR are shown in FIG. 3.

human fibroblasts = experiment: Cytotoxicity test: culture viability of human fibroblasts (Cell Counting Kit-8); format: cell-based; settings: 48 hours treatment, FIG. 1
Procedure: First, to examine the biotoxicity of 1,2,3-butanetriol, culture survival experiments of human fibroblasts according to the concentration change of 1,2,3-butanetriol were conducted.
The initial seeding density was 5000 cells/well based on 96 wells, and the culture conditions were as follows:
Dulbecco's Modified Eagle Medium (DMEM)+Fetal Bovine Serum (FBS) 10%; 37° C., 5% CO2; and 12 hours after seeding, 1,2,3-butanetriol was treated at different concentrations to determine cytotoxicity, and after 48 hours of 1,2,3-butanetriol treatment, Dojindo Cell Counting Kit-8 was dispensed at a rate of 10 μl per well and incubated at 37° C. for 2 hours, then cell viability was measured at 450 nm Absorbance.
FIG. 1 is a graph illustrating the culture viability of human fibroblasts according to the concentration change of 1, 2,3-butanetriol, and the horizontal axis of FIG. 1 indicates the concentration of the treated 1,2,3-butanetriol in an mM unit.

bacteria in plaque = experiment: Antibacterial test of 1,2,3-butanetriol: growth of cultured plaque bacteria, absorption at 600 nm; format: cell-based, oral bacteria; settings: FIG. 2
Procedure: Subsequently, to examine the effect of inhibiting bacterial activity in plaque, bacterial strains were prepared as follows. First, plaque was collected from three research participants, and was cultured in a BHI medium (Bovine Heart Infusion 4 g/160 ml distilled water-DDW) with 1 wt. % sucrose added for 24 hours. From the above cultured strain, gDNA was extracted, and the bacteria were identified through PCR. BHI medium (Bovine Heart Infusion 4 g/160 ml distilled water-DDW) with 1wt. % sucrose added was prepared and sterilized in a high-temperature and high-pressure autoclave. Then, 1,2, 3-butanetriol (1,2,3-BT) was dispensed to each concentration, and a 96-well microplate containing 180 μl of the culture solution was prepared. Here, 20 μl of the culture solution in which the bacteria in plaque prepared above was proliferated was dispensed per well. This microplate was placed in a Biotek Synergy 2 microplate reader, the temperature was adjusted to 37° C., and the absorption rate was measured at 600 nm.

CC(O)C(O)CO (racemic) [1,2,3-butanetriol]
growth inhibitory effect on each bacterial species [1]: clearly identified | cell viability (human fibroblasts; concentration of about 12.5 mM or less): not significantly reduced | cell viability (human fibroblasts; concentration of about 25 mM): about 50% | effect of inhibiting bacterial growth (at least) (bacteria in plaque; 12 hours after culturing, compared to no 1,2,3-butanetriol treatment, lowest effect): at least 10% | effect of inhibiting bacterial growth (maximum) (bacteria in plaque; 12 hours after culturing, compared to no 1,2,3-butanetriol treatment, maximum effect): ≥ 50% | bacterial growth (bacteria in plaque; plaque bacteria in BHI medium with 1 wt. % sucrose, 37° C.): significantly effectively inhibited

From patent US20220304941A1, “COMPOSITION FOR PREVENTING OR TREATING ORAL DISEASES” (TECOZYME INC, priority 2019, published 2022)
